Reference: ChEMBL document CHEMBL5620416, “Design, synthesis and development of a dual inhibitor of Topoisomerase 1 and poly (ADP-ribose) polymerase 1 for efficient killing of cancer cells” (Eur J Med Chem, 2023)
Calls of active or inactive are those of the source. The rule behind the calls is not given here.

Tests used:
HCT-116 [1] = assay: Induction of PARylation in human HCT-116 cells at 20 uM incubated for 2 to 8 hrs by Western blotting analysis; assay type: functional, cell-based; conditions: time 2-8 hrs
[2] = test system: DNA topoisomerase 1/Deoxyribonucleic acid (Homo sapiens); assay: Induction of TOP1-DNA covalent complex stabilization in human HCT-116 cells after 2 to 8 hrs by immunofluorescence microscopic assay; assay type: cell-based; conditions: dose 20.0 µM, time 2-8 hrs
MCF-10A = assay: Cytotoxicity against human MCF-10A cells at 50 uM incubated for 72 hrs by MTT assay; assay type: toxicity, cell-based
[3] = target: T1, DNA topoisomerase 1 (Homo sapiens) (UniProt P11387); assay: Induction of TOP1 degradation in human HCT-116 cells at 20 uM after 2 to 24 hrs by alkaline lysis method; assay type: cell-based; conditions: time 2-24 hrs
T1 sequence (whole entry): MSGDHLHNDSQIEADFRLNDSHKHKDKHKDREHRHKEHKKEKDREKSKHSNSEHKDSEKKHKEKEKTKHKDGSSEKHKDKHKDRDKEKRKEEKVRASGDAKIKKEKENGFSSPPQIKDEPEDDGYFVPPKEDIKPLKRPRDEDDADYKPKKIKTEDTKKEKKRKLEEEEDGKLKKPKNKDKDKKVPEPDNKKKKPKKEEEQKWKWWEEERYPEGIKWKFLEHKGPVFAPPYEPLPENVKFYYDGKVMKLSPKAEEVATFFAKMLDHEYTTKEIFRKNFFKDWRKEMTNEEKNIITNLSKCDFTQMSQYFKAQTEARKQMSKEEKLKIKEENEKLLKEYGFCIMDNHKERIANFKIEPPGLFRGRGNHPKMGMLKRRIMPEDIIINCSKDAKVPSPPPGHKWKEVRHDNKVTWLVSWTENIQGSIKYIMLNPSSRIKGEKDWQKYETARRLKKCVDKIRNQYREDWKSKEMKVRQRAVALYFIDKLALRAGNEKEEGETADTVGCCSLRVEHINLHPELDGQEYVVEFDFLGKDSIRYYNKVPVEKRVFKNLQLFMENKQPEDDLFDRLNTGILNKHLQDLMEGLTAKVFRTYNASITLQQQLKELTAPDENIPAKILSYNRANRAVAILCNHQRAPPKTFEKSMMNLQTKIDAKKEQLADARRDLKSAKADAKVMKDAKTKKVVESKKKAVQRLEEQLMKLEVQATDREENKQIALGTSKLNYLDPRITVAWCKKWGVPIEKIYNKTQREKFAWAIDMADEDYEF

Calf thymus DNA [4] = assay: Displacement of EtBr from calf thymus pUC19 DNA preincubated with EtBr for 15 mins followed by compound addition and measured after 30 mins by […] staining based fluorescence assay; assay type: nucleic-acid assay; conditions: Bos taurus, dose 100-300 µM
HCT-116 [5] = assay: Induction of cell cycle arrest in human HCT-116 cells assessed as accumulation of cells at G2 phase at 20 uM incubated for 48 hrs by PI staining based flow cytometry analysis (reference value: 26%); assay type: functional
Calf thymus DNA [6] = assay: Binding affinity to calf thymus pUC19 DNA assessed as intercalating activity by measuring conformational change in DNA at 50 to 300 uM incubated for 30 mins by EtBr staining based agarose gel electrophoresis; assay type: nucleic-acid assay; conditions: Bos taurus, dose 50-300 µM
HCT-116 [7] = assay: Induction of cell cycle arrest in human HCT-116 cells assessed as accumulation of cells at S phase at 10 uM incubated for 48 hrs by PI staining based flow cytometry analysis (reference value: 17%); assay type: functional
HCT-116 [8] = assay: Induction of cell cycle arrest in human HCT-116 cells incubated for 24 to 48 hrs by PI staining based flow cytometry analysis; assay type: functional; conditions: dose 5-20 µM, time 24-48 hrs
HCT-116 [9] = assay: Induction of cell cycle arrest in human HCT-116 cells assessed as accumulation of cells at G2 phase at 5 uM incubated for 48 hrs by PI staining based flow cytometry analysis (reference value: 26%); assay type: functional
HCT-116 [10] = assay: Induction of cell cycle arrest in human HCT-116 cells assessed as accumulation of cells at Sub-G1 phase at 5 uM incubated for 48 hrs by PI staining based flow cytometry analysis (reference value: 2.7 +/- 0.4%); assay type: functional
[11] = test system: DNA topoisomerase 1/Deoxyribonucleic acid (Homo sapiens); assay: Induction of TOP1-DNA covalent complex degradation in human HCT-116 cells at 20 uM measured upto 24 hrs by RADAR assay; assay type: cell-based
[12] = target: Poly [ADP-ribose] polymerase 1 (Homo sapiens) (UniProt P09874); assay: Inhibition of recombinant human PARP1 at 20 uM incubated for 10 mins relative to control
Poly [ADP-ribose] polymerase 1 (Homo sapiens), sequence (P09874 whole entry): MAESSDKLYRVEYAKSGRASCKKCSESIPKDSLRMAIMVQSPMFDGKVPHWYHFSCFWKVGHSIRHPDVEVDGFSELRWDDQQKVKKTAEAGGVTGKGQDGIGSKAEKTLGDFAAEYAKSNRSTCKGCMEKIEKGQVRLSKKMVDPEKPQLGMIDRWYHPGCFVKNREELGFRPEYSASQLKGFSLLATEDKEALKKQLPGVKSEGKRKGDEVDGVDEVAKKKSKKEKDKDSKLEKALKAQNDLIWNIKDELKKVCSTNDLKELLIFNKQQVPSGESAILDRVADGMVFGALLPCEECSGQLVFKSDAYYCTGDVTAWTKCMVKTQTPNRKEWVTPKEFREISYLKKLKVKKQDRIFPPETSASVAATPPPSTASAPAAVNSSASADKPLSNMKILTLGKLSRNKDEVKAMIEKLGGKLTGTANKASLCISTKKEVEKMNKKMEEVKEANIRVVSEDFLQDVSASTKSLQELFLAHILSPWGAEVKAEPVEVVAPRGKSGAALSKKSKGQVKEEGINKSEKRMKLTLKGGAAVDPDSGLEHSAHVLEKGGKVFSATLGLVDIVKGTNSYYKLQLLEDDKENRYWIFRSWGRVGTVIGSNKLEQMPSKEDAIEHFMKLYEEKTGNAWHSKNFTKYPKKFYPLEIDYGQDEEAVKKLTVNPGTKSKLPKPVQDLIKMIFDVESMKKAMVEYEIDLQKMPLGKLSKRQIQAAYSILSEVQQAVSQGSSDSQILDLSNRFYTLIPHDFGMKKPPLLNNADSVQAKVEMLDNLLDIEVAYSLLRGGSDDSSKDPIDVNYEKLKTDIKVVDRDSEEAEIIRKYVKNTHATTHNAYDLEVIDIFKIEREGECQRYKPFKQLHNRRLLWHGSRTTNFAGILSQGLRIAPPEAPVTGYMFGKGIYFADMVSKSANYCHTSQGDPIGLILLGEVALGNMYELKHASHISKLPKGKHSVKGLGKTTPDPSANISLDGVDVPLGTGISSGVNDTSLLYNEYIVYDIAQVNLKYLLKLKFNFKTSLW

Q: Which Activity (HCT-116 [1]) does the source give for `O=C1c2cccc3cccc(c23)C(=O)N1CCSc1nnc(Cn2nc(Cc3ccc(F)cc3)c3ccccc3c2=O)o1` here?
A: Its Activity is “Active”.

Q: And the Activity [2]?
A: The Activity was “Dose-Dependent Effect”.

Q: What about the Activity (MCF-10A) of the same compound?
A: Its Activity is greater than 80%.

Q: What about the Activity [3] of the same compound?
A: Its Activity is “Active”.

Q: And the Activity (Calf thymus DNA [4])?
A: The Activity was “Dose-Dependent Effect”.

Q: And the Activity (HCT-116 [5])?
A: The Activity was 34%.

Q: And the Activity (Calf thymus DNA [6])?
A: Its Activity is “inactive”.

Q: And the Activity (HCT-116 [7])?
A: The Activity was 33%.

Q: And the Activity (HCT-116 [8])?
A: Its Activity is “Dose-Dependent Effect”.

Q: And the Activity (HCT-116 [9])?
A: Its Activity is 29%.

Q: What about the Activity (HCT-116 [10]) of the same compound?
A: Its Activity is 35%.

Q: What about the Activity [11] of the same compound?
A: Its Activity is “Active”.

Q: What about the inhibition [12] of the same compound?
A: The inhibition was 25%.
